Here are results for 17 compounds from patent US9676704B2, “Pesticidal compositions and processes related thereto” (Dow AgroSciences LLC, priority 2014, dated 2017).

In assay [1] the test system is Beet Armyworm (BAW). Briefly: Bioassays on BAW, 128-well diet tray assay. The assay is classed as in vivo. As to conditions: Spodoptera exigua; for mortality at 50 µg/cm2: 168 h, 50 μg/cm^2 on artificial diet, second instar larvae, five to seven days, 25° C., read-out: BAW % Control (or Mortality) rating; for mortality at 0.05 µg/cm2: 0.05 μg/cm^2; for mortality at 0.05 µg/cm2 / mortality at 0.5 µg/cm2 / mortality at 5 µg/cm2: read-out: BAW Percent control (or mortality); for mortality at 0.5 µg/cm2: 0.5 μg/cm^2; for mortality at 5 µg/cm2: 5 μg/cm^2. As for the experimental part: Bioassays on BAW were conducted using a 128-well diet tray assay. one to five second instar BAW larvae were placed in each well (3 mL) of the diet tray that had been previously filled with 1 mL of artificial diet to which 50 μg/cm^2 of the test compound (dissolved in 50 μL of 90:10 acetone-water mixture) had been applied (to each of eight wells) and then allowed to dry. Trays were covered with a clear self-adhesive cover, and held at 25° C., 14:10 light-dark for five to seven days. Percent mortality was recorded for the larvae in each well; activity in the eight wells was then averaged. The results are indicated in the tables entitled “Table ABC: Assay Results (F)”, “Table ABCD: Assay Results (C)”, and “Table ABCDE: Assay Results (P)” (See Table Section).
(§1) Bioassays on BAW and CL were conducted according to the procedures outlined in Example A: Bioassays on Beet Armyworm (“BAW”) and Cabbage Looper (“CL”) using the following concentrations: 5, 0.5, and 0.05 μg/cm^2.

For assay [2], the system named is Cabbage Looper (CL). Briefly: Bioassays on CL, 128-well diet tray assay. Particulars: Trichoplusia ni; for mortality at 50 µg/cm2: 168 h, 50 μg/cm^2 on artificial diet, second instar larvae, five to seven days, 25° C., read-out: CL % Control (or Mortality) rating; for mortality at 0.05 µg/cm2: 0.05 μg/cm^2; for mortality at 0.05 µg/cm2 / mortality at 0.5 µg/cm2 / mortality at 5 µg/cm2: read-out: CL Percent control (or mortality); for mortality at 0.5 µg/cm2: 0.5 μg/cm^2; for mortality at 5 µg/cm2: 5 μg/cm^2. The assay is classed as in vivo. As to the method:
Bioassays on CL were conducted using a 128-well diet tray assay. One to five second instar CL larvae were placed in each well (3 mL) of the diet tray that had been previously filled with 1 mL of artificial diet to which 50 μg/cm^2 of the test compound (dissolved in 50 μL of 90:10 acetone-water mixture) had been applied (to each of eight wells) and then allowed to dry. Trays were covered with a clear self-adhesive cover, and held at 25° C., 14:10 light-dark for five to seven days. Percent mortality was recorded for the larvae in each well; activity in the eight wells was then averaged. The results are indicated in the table entitled “Table ABC: Assay Results (F)”, “Table ABCD: Assay Results (C)”, and “Table ABCDE: Assay Results (P)” (See Table Section).
as §1

SMILES strings stand for the structures.

A word on the mortality: it is the percentage killed.

For `Cc1cc(/C=C/C(c2cc(Cl)c(Br)c(Cl)c2)C(F)(F)F)ccc1C(=O)N[C@H](C)NC(=O)CCC(F)(F)F` (stereo partly drawn) [Compound P16, 4-((E)-3-(4-Bromo-3,5-dichlorophenyl)-4,4,4-trifluorobut-1-en-1-yl)-2-methyl-N—((R)-1-(4,4,4-trifluorobutanamido)ethyl)benzamide], the mortality at 50 µg/cm2 in assay [1] and in assay [2] was 50 to 100% in each case.
Turning to `C[C@H](NC(=O)CS(C)(=O)=O)NC(=O)c1ccc(/C=C/C(c2cc(Cl)c(Cl)c(Cl)c2)C(F)(F)F)cc1C(F)(F)F` (stereo partly drawn) [Compound P43, N—((S)-1-(2-(Methylsulfonyl)acetamido)ethyl)-4-((E)-4,4,4-trifluoro-3-(3,4,5-trichlorophenyl)but-1-en-1-yl)-2-(trifluoromethyl)benzamide], the mortality at 50 µg/cm2 in assay [1] and in assay [2] was 50 to 100% throughout.
Consider `CNCCNC(=O)c1ccc(/C=C/C(c2cc(Cl)c(Cl)c(Cl)c2)C(F)(F)F)cc1C(F)(F)F` (stereo not drawn) [Compound C115, (E)-N-(2-(methylamino)ethyl)-4-(4,4,4-trifluoro-3-(3,4,5-trichlorophenyl)but-1-en-1-yl)-2-(trifluoromethyl)benzamide], for which the figures for the mortality at 50 µg/cm2 in assay [1] and in assay [2] were 50 to 100% and 0%, respectively.
With `C[C@H](NC(=O)CCC(F)(F)F)NC(=O)c1ccc(/C=C/C(c2cc(Cl)c(F)c(Cl)c2)C(F)(F)F)cc1C(F)(F)F` (stereo partly drawn) [Compound P9, 4-((E)-3-(3,5-Dichloro-4-fluorophenyl)-4,4,4-trifluorobut-1-en-1-yl)-N—((R)-1-(4,4,4-trifluorobutanamido)ethyl)-2-(trifluoromethyl)benzamide], the mortality at 50 µg/cm2 in assay [1] and in assay [2] was 50 to 100% each time.
With `CSCCC(=O)N[C@@H](C)NC(=O)c1ccc(/C=C/C(c2cc(Cl)c(Cl)c(Cl)c2)C(F)(F)F)cc1C(F)(F)F` (stereo partly drawn) [Compound P53, N—((R)-1-(3-(Methylthio)propanamido)ethyl)-4-((E)-4,4,4-trifluoro-3-(3,4,5-trichlorophenyl)but-1-en-1-yl)-2-(trifluoromethyl)benzamide], the mortality at 50 µg/cm2 in assay [1] and in assay [2] was 50 to 100% each time.
With `Cc1cc(/C=C/C(c2cc(Cl)c(Cl)c(Cl)c2)C(F)(F)F)ccc1C(=O)N[C@H](C)NC(=O)CC(F)(F)F` (stereo partly drawn) [Compound P22, 2-Methyl-4-((E)-4,4,4-trifluoro-3-(3,4,5-trichlorophenyl)but-1-en-1-yl)-N—((R)-1-(3,3,3-trifluoropropanamido)ethyl)benzamide], in assay [1], the mortality at 50 µg/cm2 lay in the range of 50 to 100%, the mortality at 0.05 µg/cm2 came out at 25%, the mortality at 0.5 µg/cm2 is 100% and the mortality at 5 µg/cm2 is 100%. In addition, in assay [2], the mortality at 50 µg/cm2 is 50 to 100%, the mortality at 0.05 µg/cm2 was 63%, the mortality at 0.5 µg/cm2 is 100% and the mortality at 5 µg/cm2 is 100%.
With `O=C(CCC(F)(F)F)NCNC(=O)c1ccc(/C=C/C(c2cc(Cl)c(Cl)c(Cl)c2)C(F)(F)F)cc1C(F)(F)F` (stereo not drawn) [Compound F13, (E)-4-(4,4,4-Trifluoro-3-(3,4,5-trichlorophenyl)but-1-en-1-yl)-N-((4,4,4-trifluorobutanamido)methyl)-2-(trifluoromethyl)benzamide], the mortality at 50 µg/cm2 in assay [1] and in assay [2] was 50 to 100% throughout.
As to `C[C@H](NC(=O)CCC(F)(F)F)NC(=O)c1ccc(/C=C/C(c2cc(Cl)c(Cl)c(Cl)c2)C(F)(F)F)cc1` (stereo partly drawn) [FC1, 4-((E)-4,4,4-Trifluoro-3-(3,4,5-trichlorophenyl)but-1-en-1-yl)-N—((R)-1-(4,4,4-trifluorobutanamido)ethyl)benzamide], in assay [1], the mortality at 0.05 µg/cm2 amounted to 0%, the mortality at 0.5 µg/cm2 was 0% and the mortality at 5 µg/cm2 was found to be 13%. Moreover, in assay [2], the mortality at 0.05 µg/cm2 was determined as 0%, the mortality at 0.5 µg/cm2 stood at 0% and the mortality at 5 µg/cm2 is 71%.
For the compound `CSCC(=O)N[C@@H](C)NC(=O)c1ccc(/C=C/C(c2cc(Cl)c(Cl)c(Cl)c2)C(F)(F)F)cc1C(F)(F)F` (stereo partly drawn) [Compound P54, N—((S)-1-(2-(Methylthio)acetamido)ethyl)-4-((E)-4,4,4-trifluoro-3-(3,4,5-trichlorophenyl)but-1-en-1-yl)-2-(trifluoromethyl)benzamide], the mortality at 50 µg/cm2 in assay [1] and in assay [2] was 50 to 100% each time.
Consider `Cc1cc(/C=C/C(c2cc(Cl)c(Br)c(Cl)c2)C(F)(F)F)ccc1C(=O)N[C@H](C)NC(=O)CC(F)(F)F` (stereo partly drawn) [Compound P8, 4-((E)-3-(4-Bromo-3,5-dichlorophenyl)-4,4,4-trifluorobut-1-en-1-yl)-2-methyl-N—((R)-1-(3,3,3-trifluoropropanamido)ethyl)benzamide], for which the mortality at 50 µg/cm2 in assay [1] and in assay [2] was 50 to 100% throughout.
Consider `Cc1cc(/C=C/C(c2cc(Cl)c(Cl)c(Cl)c2)C(F)(F)F)ccc1C(=O)N[C@H](C)NC(=O)CCC(F)(F)F` (stereo partly drawn) [Compound P25, 2-Methyl-4-((E)-4,4,4-trifluoro-3-(3,4,5-trichlorophenyl)but-1-en-1-yl)-N—((R)-1-(4,4,4-trifluorobutanamido)ethyl)benzamide], for which, in assay [1], the mortality at 50 µg/cm2 is 50 to 100%, the mortality at 0.05 µg/cm2 is 100%, the mortality at 0.5 µg/cm2 is 100% and the mortality at 5 µg/cm2 worked out at 100%. In assay [2], the mortality at 50 µg/cm2 was 50 to 100%, the mortality at 0.05 µg/cm2 stood at 100%, the mortality at 0.5 µg/cm2 turned out to be 100% and the mortality at 5 µg/cm2 is 100%.
As for `CC(CC(F)(F)F)C(=O)N[C@@H](C)NC(=O)c1ccc(/C=C/C(c2cc(Cl)c(Cl)c(Cl)c2)C(F)(F)F)cc1C(F)(F)F` (stereo partly drawn) [Compound P30, N—((R)-1-(4,4,4-Trifluoro-2-methylbutanamido)ethyl)-4-((E)-4,4,4-trifluoro-3-(3,4,5-trichlorophenyl)but-1-en-1-yl)-2-(trifluoromethyl)benzamide], the mortality at 50 µg/cm2 in assay [1] and in assay [2] was 50 to 100% throughout.
Consider `C[C@H](NC(=O)CC(F)(F)F)NC(=O)c1ccc(/C=C/C(c2cc(Cl)c(F)c(Cl)c2)C(F)(F)F)cc1C(F)(F)F` (stereo partly drawn) [Compound P1, 4-((E)-3-(3,5-Dichloro-4-fluorophenyl)-4,4,4-trifluorobut-1-en-1-yl)-2-(trifluoromethyl)-N—((R)-1-(3,3,3-trifluoropropanamido)ethyl)benzamide], for which the mortality at 50 µg/cm2 in assay [1] and in assay [2] was 50 to 100% each time.
For the compound `Cc1cc(/C=C/C(c2cc(Br)cc(Br)c2)C(F)(F)F)ccc1C(=O)N[C@H](C)NC(=O)CCC(F)(F)F` (stereo partly drawn) [Compound P15, 4-((E)-3-(3,5-Dibromophenyl)-4,4,4-trifluorobut-1-en-1-yl)-2-methyl-N—((R)-1-(4,4,4-trifluorobutanamido)ethyl)benzamide], the mortality at 50 µg/cm2 in assay [1] and in assay [2] was 50 to 100% each time.
`C[C@H](NC(=O)CCC(F)(F)F)NC(=O)c1ccc(/C=C/C(c2cc(Cl)c(Cl)c(Cl)c2)C(F)(F)F)cc1C(F)(F)F` (stereo partly drawn) [Compound F1, 4-((E)-4,4,4-Trifluoro-3-(3,4,5-trichlorophenyl)but-1-en-1-yl)-N—((R)-1-(4,4,4-trifluorobutanamido)ethyl)-2-(trifluoromethyl)benzamide]: in assay [1], the mortality at 50 µg/cm2 was 50 to 100%, the mortality at 0.05 µg/cm2 was determined as 100%, the mortality at 0.5 µg/cm2 is 100% and the mortality at 5 µg/cm2 came to 100%. Further, in assay [2], the mortality at 50 µg/cm2 is 50 to 100%, the mortality at 0.05 µg/cm2 was 97%, the mortality at 0.5 µg/cm2 worked out at 100% and the mortality at 5 µg/cm2 worked out at 100%.
For `C[C@H](NC(=O)CCS(C)(=O)=O)NC(=O)c1ccc(/C=C/C(c2cc(Cl)c(Cl)c(Cl)c2)C(F)(F)F)cc1C(F)(F)F` (stereo partly drawn) [Compound P47, N—((R)-1-(3-(methylsulfonyl)propanamido)ethyl)-4-((E)-4,4,4-trifluoro-3-(3,4,5-trichlorophenyl)but-1-en-1-yl)-2-(trifluoromethyl)benzamide], the mortality at 50 µg/cm2 in assay [1] and in assay [2] was 50 to 100% each time.
As for `C[C@H](NC(=O)CC(F)(F)F)NC(=O)c1ccc(/C=C/C(c2cc(Cl)c(Cl)c(Cl)c2)C(F)(F)F)cc1` (stereo partly drawn) [FC2, 4-((E)-4,4,4-Trifluoro-3-(3,4,5-trichlorophenyl)but-1-en-1-yl)-N—((R)-1-(3,3,3-trifluoropropanamido)ethyl)benzamide], in assay [1], the mortality at 0.05 µg/cm2 was 0%, the mortality at 0.5 µg/cm2 was 0% and the mortality at 5 µg/cm2 was 0%. Besides, in assay [2], the mortality at 0.05 µg/cm2 came to 0%, the mortality at 0.5 µg/cm2 was 0% and the mortality at 5 µg/cm2 came out at 0%.
